Assay results as given in patent publication US7662851B2, “Use of specific cyklolignans” (Axelar AB, priority 2001, dated 2010).

Key:
[1] = test system: DWB malignant melanoma cell line; assay: Cell viability (XTT), DWB; type: cell-based; conditions: 48 h
Experimental: (§1) Cell proliferation kit II (Roche Inc.) is based on colorimetric change of the yellow tetrazolium salt XTT in orange formazan dye by the respiratory chain of viable cells (Roehm, N W, et al., J Immunol Methods 142:257-265, 1991). Cells seeded at a concentration of 5000/well in 100 μl medium in a 96-well plate were treated with different drugs in the given concentration. After 24 or 48 h the cells were incubated, according to the manufacturer's protocol, with XTT labelling mixture. After 4 h the formazan dye is quantified using a scanning multiwell spectrophotometer with a 495-nm filter. The absorbance is directly correlated with the number of viable cells. The standard absorbance curve was drawn by means of untreated cells seeded at a concentration of from 1000 to 10 000 cells/well with an increasing rate of 1000 cells/well. All standards and experiments were performed in triplicates.
(§2) 12 different types of cell lines were seeded in 96-well plates (medium volume in a well was 100 μl), at a concentration of 10,000 cells/cm^2 in Minimal Essential Medium supplemented with fetal calf serum. When the cells had reached a concentration of 65,000 cells/cm^2, they were treated with different doses of podophyllotoxin and picropodophyllin for 48 h. Cell viability was then assayed (see above). […]

[2] = test system: SK-MEL-2 melanoma cell line; assay: Cell viability (XTT, Cell proliferation kit II), SK-MEL-2; type: cell-based; conditions: Homo sapiens, SK-MEL-2, 48 h
Experimental: as §1, §2

β-tubulin = conditions: in vitro; read-out: IC50, binding to β-tubulin; cited from earlier work
[3] = test system: BE malignant melanoma cell line; assay: Cell viability (XTT), BE; type: cell-based; conditions: 48 h
Experimental: as §1, §2

EGFR tyrosine kinase = EGFR tyrosine kinase (Homo sapiens, UniProt P00533); assay: In vitro tyrosine kinase assay: substrate phosphorylation by EGFR, cell-free; type: biochemical; conditions: FIG. 3
Sequence of EGFR tyrosine kinase (P00533 25-1210): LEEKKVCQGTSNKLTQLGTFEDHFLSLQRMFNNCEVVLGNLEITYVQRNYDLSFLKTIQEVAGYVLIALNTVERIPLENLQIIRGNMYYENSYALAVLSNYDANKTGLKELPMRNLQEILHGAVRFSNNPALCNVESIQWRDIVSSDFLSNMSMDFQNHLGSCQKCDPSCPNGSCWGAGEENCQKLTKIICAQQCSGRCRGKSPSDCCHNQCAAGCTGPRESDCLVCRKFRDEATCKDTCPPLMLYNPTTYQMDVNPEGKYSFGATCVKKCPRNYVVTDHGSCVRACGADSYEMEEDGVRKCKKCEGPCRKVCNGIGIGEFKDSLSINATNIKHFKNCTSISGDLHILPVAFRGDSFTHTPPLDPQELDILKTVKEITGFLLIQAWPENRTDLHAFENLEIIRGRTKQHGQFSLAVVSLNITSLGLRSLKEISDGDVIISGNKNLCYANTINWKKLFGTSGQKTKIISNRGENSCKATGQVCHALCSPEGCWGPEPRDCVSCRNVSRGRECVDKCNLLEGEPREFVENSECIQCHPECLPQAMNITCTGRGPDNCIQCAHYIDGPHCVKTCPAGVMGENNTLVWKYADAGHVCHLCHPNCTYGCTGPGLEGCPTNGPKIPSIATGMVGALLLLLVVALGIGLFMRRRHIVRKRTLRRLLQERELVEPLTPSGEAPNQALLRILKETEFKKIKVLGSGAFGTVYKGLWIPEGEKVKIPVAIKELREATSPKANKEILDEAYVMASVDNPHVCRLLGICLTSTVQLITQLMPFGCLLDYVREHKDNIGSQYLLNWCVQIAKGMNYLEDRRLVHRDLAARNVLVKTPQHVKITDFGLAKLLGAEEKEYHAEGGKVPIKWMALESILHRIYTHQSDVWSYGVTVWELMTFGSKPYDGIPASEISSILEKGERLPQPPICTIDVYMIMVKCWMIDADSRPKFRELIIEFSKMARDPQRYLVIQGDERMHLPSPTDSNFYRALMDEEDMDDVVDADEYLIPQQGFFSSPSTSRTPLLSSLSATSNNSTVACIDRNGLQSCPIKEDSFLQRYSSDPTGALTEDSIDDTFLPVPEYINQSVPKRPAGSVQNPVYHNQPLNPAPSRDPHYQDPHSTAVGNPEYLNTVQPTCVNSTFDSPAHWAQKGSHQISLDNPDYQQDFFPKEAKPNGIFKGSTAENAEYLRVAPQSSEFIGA

[4] = test system: K562/Vcr30 chronic myeloid leukemia cells; assay: Leukemia cell viability, K562/Vcr30; type: cell-based, human; conditions: Homo sapiens; K562/Vcr30, 72 h; read-out: IC50 for cell viability
Experimental: (§3) The human chronic myeloid leukemia K562/S and K562/Vcr30 lines and the acute myeloid leukemia cell lines HL60/0 and HL60/Nov were obtained from ATCC. The K562/S and […] are wild type (non-resistant) cells, whereas K562/Vcr30 and HL60/Nov are cytostatic-resistant sublines. All leukemia cell lines were cultured in RPMI 1640 medium supplemented with 10% fetal bovine serum and with 2 mM L-glutamine, benzylpenicillin (100 U/ml) and streptomycin (100 μg/ml). The cells were grown in tissue culture flasks maintained at 95% air/5% CO2 atmosphere at 37° C. in a humidified incubator. For the experiments cells were cultured in 60-mm plastic dishes or 96-well plastic plates.
as §1
(§4) Cells of said cell lines were seeded in 96-well plates (25 000 cells/well, medium volume per well was 100 μl), in […] medium supplemented with fetal calf serum. After 24 h picropodophyllin and the derivatives alpha-apopicropodophyllin and beta-apopicropodo-phyllin were added at different concentrations and the cells were incubated for 72 h. Cell viability was then assayed (see above). […] The results are based on 3 different experiments.
(§5) The leukemia cell lines K562/S, […], HL60/0 and HL60/Nov were cultured in 96-well plates as described in Experiment 7. After 24 h, the cells were treated for 72 h with different concentrations of the anti-cancer agent vincristine, with and without co-incubation with 0.05 μM picropodophyllin. […] Cell viability was then assayed. IC50 values for each inhibitor and cell line are shown below (Table 8). The results are based on 3 different experiments.

[5] = test system: HL60/0 acute myeloid leukemia cells; assay: Leukemia cell viability, HL60/0; type: cell-based, human; conditions: Homo sapiens, HL-60; HL60, 72 h; read-out: IC50 for cell viability
Experimental: as §3, §1, §4, §5

[6] = test system: ES-1 (Ewing's sarcoma cells) xenografts; assay: Tumor growth of ES-1 xenografts in nude mice; type: in vivo; conditions: 28 mg/kg i.p. daily 4-6 days, then 4-6 days without treatment, FIG. 6
Experimental: Control mice were treated with the solvent. 3-6 animals were treated in each group.
Because of the toxicity of podophyllotoxin and deoxypodophyllotoxin, we only used picropodophyllin to analyze effects on tumor xenografts. For this purpose ES-1 (Ewing's sarcoma cells) and BE (melanoma cells) xenografts were established in nude mice. When the ES-1 and BE tumors started growing subcutaneously and were measurable, mice were treated daily with intraperitoneal injections of picropodophyllin (28 mg/kg, which was required for giving an average concentration above 0.05 μM of picropodophyllin in the blood plasma) or 80% DMSO in saline as a carrier for 4-6 days, followed by 4-6 days without treatment. The mice were then killed and the tumors analyzed by an experienced pathologist.

[7] = test system: K562/S chronic myeloid leukemia cells; assay: Leukemia cell viability, K562/S; type: cell-based, human; conditions: Homo sapiens, 72 h, read-out: IC50 for cell viability
Experimental: as §3, §1, §4, §5

[8] = rats; cited from earlier work

Row | Compound | EC50 [1] | EC50 [2] | IC50 (β-tubulin) | EC50 [3] | Interference with substrate phosphorylation of EGFR tyrosine kinase (EGFR tyrosine kinase) | IC50 [4] | IC50 [5] | Effect on tumor growth [6] | IC50 [7] | Fold higher LD50 than podophyllotoxin [8]
1 | COc1cc([C@@H]2c3cc4c(cc3[C@H](O)[C@H]3COC(=O)[C@H]23)OCO4)cc(OC)c1OC [Podophyllotoxin, podophyllotoxin] | 40 nM | 50 nM | […] | 50 nM | – | – | – | – | – | –
2 | COc1cc([C@@H]2c3cc4c(cc3[C@H](O)[C@H]3COC(=O)[C@@H]23)OCO4)cc(OC)c1OC [Picropodophyllin, picropodophyllin] | – | – | – | – | failed to interfere | […] | 170 nM | significantly inhibited growth | 320 nM | […]
